Test results published in US20240342292A1, “Compounds for the Degradation of EGFR Kinase” (BeiGene Switzerland GmbH, priority 2021, published 2024).

What was measured:
Del19/T790M/C797S EGFR = experiment: EGFR degradation HTRF assay in H1975-clone #28 (DTC) cells; type: cell-based; details: H1975 # 28 DTC (Del19/T790M/C797S), 16h treatment; for DC50: HTRF; for Dmax (%): maximum percentage of degradation
Excerpt: (§1) H1975-clone #28(Del19/T790M/C797S, or abbr: DTC), H1975-clone #23(Del19/C797S, or abbr: DC), H1975-clone #25(L858R/T790M/C797S, or abbr: LTC) and H1975-clone #8 (L858R/C797S, or abbr: LC). EGFR-Del19:T790M/C797S, EGFR-Del19/C797S, EGFR-L858R/T790M/C797S and EGFR-L858R/C797S were stably expressed in H1975 cell lines by lentivirus-mediated over-expression, respectively. The EGFR over-expressed cells then underwent knockout, in which the EGFR targeting sgRNA was designed to only target the endogenous EGFR copies and preserve the exogenous EGFR copies. Followed by the knockout, the edited H1975 cells were seeded in 96 well plates at the concentration of […], cultured for about 2 weeks to allow single clones formation. The formed clones were screened by DNA sequencing and whole exon sequencing analysis for the desired edition. H1975-clone #28, H1975-clone #23, H1975-clone #25 and H1975-clone #8 were finally confirmed as homozygous Del19/T790M/C797S EGFR, Dell9/C797S EGFR, L858R/T790M/C797S EGFR and L858R/C797S EGFR clones, respectively.
(§2) H1975-#25, H1975-#28, H1975-#23 and H1975-#8 cells are treated with compounds diluted in 0.2% DMSO cell culture medium on day 2, incubate for 16h, 37° C., 5% CO2. the final concentration of compounds in all assay is start with 10 uM, 5-fold dilution, total 8 doses were included.
(§3) After 16h treatment, add HTRF lysis buffer to each well; seal the plate and incubate 1 hour at room temperature on a plate shaker; Once the cells are lysed, 16 μL of cell lysate are transferred to a PE 384-well HTRF detection plate; 4 μL of pre-mixed HTRF antibodies are added to each well; Cover the plate with a plate sealer, spin 1000 rpm for 1 min, Incubate overnight at room temperature; Read on BMG PheraStar with HTRF protocol (337 nm-665 nm-620 nm).
(§4) The IC50 (DC50) value of a compound can be obtained by fitting the following equation
(§5) Y=Bottom+(TOP−Bottom)/(1+((IC50/X)^hillslope))
(§6) Wherein, X and Y are known values, and IC50, Hillslope, Top and Bottom are the parameters obtained by fitting with software. Y is the inhibition percentage (calculated from the equation), X is the concentration of the compound: IC50 is the concentration of the compound when the 50% inhibition is reached. The smaller the IC50 value is, the stronger the inhibitory ability of the compound is. Vice versa, the higher the IC50 value is, the weaker the ability the inhibitory ability of the compound is: Hillslope represents the slope of the fitted curve, generally around 1*; Bottom represents the minimum value of the curve obtained by data fitting, which is generally 0%±20%; Top represents the maximum value of the curve obtained by data fitting, which is generally 100%±20%. The experimental data were fitted by calculating and analyzing with Dotmatics data analysis software.

L858R/T790M/C797S EGFR = molecular target: T1, L858R/T790M/C797S EGFR (Homo sapiens, UniProt P00533, C797S/L858R/T790M); experiment: EGFR degradation HTRF assay in H1975-clone #25 (LTC) cells; type: cell-based; details: 16h treatment; for DC50: H1975 # 25-LTC (L858R/T790M/C797S), HTRF; for Dmax: NCI-H1975, H1975 # 25-LTC (L858R/T790M/C797S), maximum percentage of degradation
T1 construct: expressed in transfected cells; host or cells: H1975 clone #25 (lentiviral over-expression, endogenous EGFR knocked out by sgRNA)
Excerpt: as §1, §2, §3, §4, §5, §6

T1 sequence (P00533 25-1210 T790M/C797S/L858R): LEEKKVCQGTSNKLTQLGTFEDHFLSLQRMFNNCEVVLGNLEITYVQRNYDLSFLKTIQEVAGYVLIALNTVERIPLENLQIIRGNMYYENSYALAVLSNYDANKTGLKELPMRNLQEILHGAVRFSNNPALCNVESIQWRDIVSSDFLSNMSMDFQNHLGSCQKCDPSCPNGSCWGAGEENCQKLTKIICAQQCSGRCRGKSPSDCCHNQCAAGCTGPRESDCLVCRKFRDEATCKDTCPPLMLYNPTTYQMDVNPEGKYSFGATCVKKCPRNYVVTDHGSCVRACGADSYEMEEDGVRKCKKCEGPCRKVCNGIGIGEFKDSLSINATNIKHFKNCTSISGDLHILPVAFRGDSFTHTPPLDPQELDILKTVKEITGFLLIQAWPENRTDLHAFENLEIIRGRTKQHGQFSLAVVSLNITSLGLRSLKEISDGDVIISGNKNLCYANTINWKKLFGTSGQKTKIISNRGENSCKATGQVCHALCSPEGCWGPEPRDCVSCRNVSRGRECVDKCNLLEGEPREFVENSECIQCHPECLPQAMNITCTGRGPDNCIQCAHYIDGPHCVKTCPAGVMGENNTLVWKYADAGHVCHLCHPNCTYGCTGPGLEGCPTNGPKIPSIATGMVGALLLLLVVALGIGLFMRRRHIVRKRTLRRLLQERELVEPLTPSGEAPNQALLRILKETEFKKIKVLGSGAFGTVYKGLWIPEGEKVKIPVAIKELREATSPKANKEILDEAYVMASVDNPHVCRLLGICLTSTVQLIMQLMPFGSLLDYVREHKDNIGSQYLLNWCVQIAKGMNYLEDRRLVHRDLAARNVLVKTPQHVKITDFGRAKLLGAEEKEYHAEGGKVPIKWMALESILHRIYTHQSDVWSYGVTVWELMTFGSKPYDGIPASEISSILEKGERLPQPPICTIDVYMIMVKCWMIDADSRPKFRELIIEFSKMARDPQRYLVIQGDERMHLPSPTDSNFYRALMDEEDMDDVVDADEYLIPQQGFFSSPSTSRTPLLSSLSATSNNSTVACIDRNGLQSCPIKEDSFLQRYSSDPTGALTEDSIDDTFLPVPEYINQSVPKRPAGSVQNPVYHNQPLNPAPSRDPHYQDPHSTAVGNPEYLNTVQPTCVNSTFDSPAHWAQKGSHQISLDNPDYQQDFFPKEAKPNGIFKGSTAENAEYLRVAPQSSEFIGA

| Structure (SMILES) | DC50 (Del19/T790M/C797S EGFR) | DC50 (L858R/T790M/C797S EGFR) | Dmax (L858R/T790M/C797S EGFR) | Dmax (%) (Del19/T790M/C797S EGFR) |
| --- | --- | --- | --- | --- |
| Cc1cc2cc(n1)-c1cnn(C)c1OCCC[C@@H](C)CN1/C(=N/C2=O)Nc2ccc(CN3CCC4(CC3)CN(CCc3cc(F)c([C@H]5CCC(=O)NC5=O)c(F)c3)C4)cc21 [Example 23, (R)-3-(2,6-difluoro-4-(2-(7-(((R,E)-1^1,2^6,7-trimethyl-3-oxo-5^2,5^3-dihydro-1^1H,5^1H-11-oxa-4-aza-5(2,1)-benzo[d]imidazola-2(2,4)-pyridina-1(4,5)-pyrazolacycloundecaphane-5^6-yl)methyl)-2,7-diazaspiro[3.5]nonan-2-yl)ethyl)phenyl)piperdine-2,6-dione] | 2.1 nM | 2.3 nM | 91.8% | 78.0% |
| Cc1cc2cc(n1)-c1cnn(C)c1OCCC[C@@H](C)CN1/C(=N/C2=O)Nc2ccc(CN3CCC4(CC3)CN(C(=O)[C@H]3CN(c5cc(F)c([C@H]6CCC(=O)NC6=O)c(F)c5)CC3(C)C)C4)cc21 [Example 26, (R)-3-(4-((R)-3,3-dimethyl-4-(7-(((R,E)-1^1,2^6,7-trimethyl-3-oxo-5^2,5^3-dihydro-1^1H,5^1H-11-oxa-4-aza-5(2,1)-benzo[d]imidazola-2(2,4)-pyridina-(4,5)-pyrazolacycloundecaphane-5^6-yl)methyl)-2,7-diazaspiro[3.5]nonane-2-carbonyl)pyrrolidin-1-yl)-2,6-difluorophenyl)piperidine-2,6-dione] | 2.4 nM | 2 nM | 93.7% | 81.2% |
| Cc1cc2cc(n1)-c1cnn(C)c1OCCC[C@@H](C)CN1/C(=N/C2=O)Nc2ccc(CN3CCN(C(=O)[C@@H]4CCN(c5cc(F)c([C@H]6CCC(=O)NC6=O)c(F)c5)C4)CC3)c(F)c21 [Example 59, (R)-3-(2,6-difluoro-4-((R)-3-(4-(((R,E)-5^7-fluoro-1^1,2^6,7-trimethyl-3-oxo-5^2,5^3-dihydro-1^1H,5^1H-11-oxa-4-aza-5(2,1)-benzo[d]imidazola-2(2,4)-pyridina-1(4,5)-pyrazolacycloundecaphane-5^6-yl)methyl)piperazine-1-carbonyl)pyrrolidin-1-yl)phenyl)piperidine-2,6-dione] | 1.48 nM | 2.92 nM | 82% | 78.58% |
| Cc1cc2cc(n1)-c1c(C(F)F)nn(C)c1OCCC[C@@H](C)CN1/C(=N/C2=O)Nc2ccc(CN3CCN(C(=O)C4CN(c5cc(F)c([C@H]6CCC(=O)NC6=O)c(F)c5)C4)CC3)cc21 [Example 64, (R)-3-(4-(3-(4-(((R,E)-13-(difluoromethyl)-1^1,2^6,7-trimethyl-3-oxo-5^2,5^3-dihydro-1^1H,5^1H-11-oxa-4-aza-5(2,1)-benzo[d]imidazola-2(2,4)-pyridina-1(4,5)-pyrazolacycloundecaphane-5^6-yl)methyl)piperazine-1-carbonyl)azetidin-1-yl)-2,6-difluorophenyl)piperidine-2,6-dione] | 1.51 nM | 3.13 nM | 76.8% | 80.65% |
| Cc1cc2cc(n1)-c1cnn(C)c1OCCC[C@@H](C)CN1/C(=N/C2=O)Nc2ccc(CN3CCN(C(=O)[C@H]4CN(c5cc(F)c([C@H]6CCC(=O)NC6=O)c(F)c5)CC4(C)C)CC3)cc21 [Example 77, (R)-3-(4-((R)-3,3-dimethyl-4-(4-(((R,E)-1^1,2^6,7-trimethyl-3-oxo-5^2,5^3-dihydro-1^1H,5^1H-11-oxa-4-aza-5(2,1)-benzo[d]imidazola-2(2,4)-pyridina-1(4,5)-pyrazolacycloundecaphane-5-yl)methyl)piperazine-1-carbonyl)pyrrolidin-1-yl)-2,6-difluorophenyl)piperidine-2,6-dione] | 2.2 nM | 1.7 nM | 83.4% | 78.3% |

These reach a lower DC50 (Del19/T790M/C797S EGFR). Values come first.

| DC50 (Del19/T790M/C797S EGFR) | DC50 (L858R/T790M/C797S EGFR) | Dmax (L858R/T790M/C797S EGFR) | Structure (SMILES) | Dmax (%) (Del19/T790M/C797S EGFR) |
| --- | --- | --- | --- | --- |
| 0.7 nM | 0.9 nM | 89% | Cc1cc2cc(n1)-c1cnn(C)c1OCCC[C@@H](C)CN1/C(=N/C2=O)Nc2ccc(CN3CCC4(CC3)CN(C(=O)[C@@H]3CCN(c5cc(F)c([C@H]6CCC(=O)NC6=O)c(F)c5)C3)C4)cc21 [Example 20, (R)-3-(2,6-difluoro-4-((R)-3-(7-(((R,E)-1^1,2^6,7-trimethyl-3-oxo-5^2,5^3-dihydro-1^1H,5^1H-li-oxa-4-aza-5(2,1)-benzo[d]imidazola-2(2,4)-pyridina-1(4,5)-pyrazolacycloundecaphane-5^6-yl)methyl)-2,7-diazaspiro[3.5]nonane-2-carbonyl)pyrrolidin-1-yl)phenyl)piperidine-2,6-dione] | 79.0% |
| 0.7 nM | 0.9 nM | 84.4% | Cc1cc2cc(n1)-c1cnn(C)c1OCCC[C@@H](C)CN1/C(=N/C2=O)Nc2ccc(CN3CCN(C(=O)C4CN(c5cc(F)c([C@H]6CCC(=O)NC6=O)c(F)c5)C4)CC3)cc21 [Example 76, (R)-3-(2,6-difluoro-4-(3-(4-(((R,E)-1^1,2^6,7-trimethyl-3-oxo-5^2,5-dihydro-1^1H,5^1H-11-oxa-4-aza-5(2,1)-benzo[d]imidazola-2(2,4)-pyridina-1(4,5)-pyrazolacycloundecaphane-5^6-yl)methyl)piperazine-1-carbonyl)azetidin-1-yl)phenyl)piperidine-2,6-dione] | 75.8% |
| 0.7 nM | 0.5 nM | 90.2% | Cc1cc2cc(n1)-c1cnn(C)c1OCCC[C@@H](C)CN1/C(=N/C2=O)Nc2ccc(CN3CC4(C3)CN(C(=O)[C@@H]3CCN(c5cc(F)c([C@H]6CCC(=O)NC6=O)c(F)c5)C3)C4)cc21 [Example 78, (R)-3-(2,6-difluoro-4-((R)-3-(6-(((R,E)-1^1,2^6,7-trimethyl-3-oxo-5^2,5^3-dihydro-1^1H,5^1H-11-oxa-4-aza-5(2,1)-benzo[d]imidazola-2(2,4)-pyridina-1(4,5)-pyrazolacycloundecaphane-5^6-yl)methyl)-2,6-diazaspiro[3.3]heptane-2-carbonyl)pyrrolidin-1-yl)phenyl)piperidine-2,6-dione] | 82.6% |
| 0.7 nM | 0.6 nM | 90.6% | Cc1cc2cc(n1)-c1cnn(C)c1OCCC[C@@H](C)CN1/C(=N/C2=O)Nc2ccc(CN3CC4(C3)CN(C(=O)C3CN(c5cc(F)c([C@H]6CCC(=O)NC6=O)c(F)c5)C3)C4)cc21 [Example 79, (R)-3-(2,6-difluoro-4-(3-(6-(((R,E)-1^1,2^6,7-trimethyl-3-oxo-5^2,5^3-dihydro-1^1H,5^1H-11-oxa-4-aza-5(2, 1)-benzo[d]imidazola-2(2,4)-pyridina-1(4,5)-pyrazolacycloundecaphane-5^6-yl)methyl)-2,6-diazaspiro[3.3]heptane-2-carbonyl)azetidin-1-yl)phenyl)piperidine-2,6-dione] | 82.2% |
| 0.8 nM | 0.8 nM | 87.5% | Cc1cc2cc(n1)-c1cnn(C)c1OCCC[C@@H](C)CN1/C(=N/C2=O)Nc2ccc(CN3CC4(C3)CN(C(=O)[C@H]3CN(c5cc(F)c([C@H]6CCC(=O)NC6=O)c(F)c5)CC3(C)C)C4)cc21 [Example 80, (R)-3-(4-((R)-3,3-dimethyl-4-(6-(((R,E)-1^1,2^6,7-trimethyl-3-oxo-5^2,5^3-dihydro-1^1H,5^1H-11-oxa-4-aza-5(2,1)-benzo[d]imidazola-2(2,4)-pyridina-1(4,5)-pyrazolacycloundecaphane-5^6-yl)methyl)-2,6-diazaspiro[3.3]heptane-2-carbonyl)pyrrolidin-1-yl)-2,6-difluorophenyl)piperidine-2,6-dione] | 87.0% |
